Data from patent US20070105875A1, “Fungicidal mixtures” (priority 2004, published 2007).

System: Corticium sasakii (syn. Rhizoctonia solani)
Test: Activity against sheath blight on rice caused by Corticium sasakii (protective spray test on potted rice plants)
Assay type: in vivo
Settings: individual active compound, rice cultivar Tai-Nong 67, evaluation after 11 days, untreated control 90% infection
Method: The active compounds, separately or jointly, were prepared as a stock solution with 0.25% by weight of active compound in acetone or DMSO. 1% by weight of the emulsifier Uniperol® EL (wetting agent having emulsifying and dispersing action based on ethoxylated alkylphenols) was added to this solution, and the solution was diluted with water to the desired concentration.
Activity Against Sheath Blight on Rice Caused by Corticium sasakii (syn. Rhizoctonia solani)
Pots of rice plants of the cultivar “Tai-Nong 67” were sprayed to runoff point with an aqeuous suspension having the concentration of active compound stated below. The next day, oat grains infected with Corticium sasakii were placed into the pots (in each case 5 grains per pot). The plants were then placed in a chamber at 26° C. and maximum atmospheric humidity. After 11 days, the sheath blight on the untreated but infected control plants had developed to such an extent that the infection could be determined visually in %.
Evaluation is carried out by determining the infected leaf areas in percent. These percentages were converted into efficacies.
The efficacy (E) is calculated as follows using Abbot's formula: E=(1−α/β)·100 α corresponds to the fungicidal infection of the treated plants in % and β corresponds to the fungicidal infection of the untreated (control) plants in %
An efficacy of 0 means that the infection level of the treated plants corresponds to that of the untreated control plants; an efficacy of 100 means that the treated plants are not infected.
The expected efficacies of the mixtures of active compounds are determined using Colby's formula [R. S. Colby, Weeds 15, 20-22 (1967)] and compared with the observed efficacies.
Colby's Formula: E=x+y−x·y/100 • E expected efficacy, expressed in % of the untreated control, when using the mixture of the active compounds A and B at the concentrations a and b • x efficacy, expressed in % of the untreated control, when using active compound A at the concentration a • y efficacy, expressed in % of the untreated control, when using active compound B at the concentration b

CC1CCN(c2c(-c3c(F)cccc3Cl)c(Cl)nc3ncnn23)CC1 [A]
Efficacy in % of the untreated control (1 ppm in the spray liquor): 0%

C[C@H](Nc1c(-c2c(F)cc(F)cc2F)c(Cl)nc2ncnn12)C(F)(F)F [B]
Efficacy in % of the untreated control (1 ppm in the spray liquor): 0%

CC1CCN(c2c(-c3c(F)cc(F)cc3F)c(Cl)nc3ncnn23)CC1 [I, 5-chloro-7-(4-methylpiperidin-1-yl)-6-(2,4,6-trifluorophenyl)-[1,2,4]triazolo[1,5-a]pyrimidine]
Efficacy in % of the untreated control (1 ppm in the spray liquor): 33%

CO/N=C(/C(=O)OC)c1ccccc1COc1ccccc1C [II (kresoxim-methyl), methyl methoxyimino-(2-o-tolyloxymethylphenyl)acetate]
Efficacy in % of the untreated control (1 ppm in the spray liquor): 0%
Efficacy in % of the untreated control (4 ppm in the spray liquor): 0%
